Drawing on patent US20240336572A1, “SUBSTITUTED INDAZOLE PROPIONIC ACID DERIVATIVE COMPOUNDS AND USES THEREOF” (Pfizer Inc., priority 2023, published 2024), this text covers EC50 and Emax for 22 molecules.

One may read the EC50 as the midpoint of the concentration-response curve. In general, Emax refers to the greatest response seen or fitted, relative to the assay's reference.

The target in assay [1] is T1, AMPK 221 (Homo sapiens, UniProt O43741+P54646).
T1 construct: open reading frames encoding the full-length α2, β2 and δ1 subunits of human AMPK; made in house; host or cells: E. coli BL21-CodonPlus (DE3)-RIPL, pET-14b
T1 sequence (P54646 whole entry): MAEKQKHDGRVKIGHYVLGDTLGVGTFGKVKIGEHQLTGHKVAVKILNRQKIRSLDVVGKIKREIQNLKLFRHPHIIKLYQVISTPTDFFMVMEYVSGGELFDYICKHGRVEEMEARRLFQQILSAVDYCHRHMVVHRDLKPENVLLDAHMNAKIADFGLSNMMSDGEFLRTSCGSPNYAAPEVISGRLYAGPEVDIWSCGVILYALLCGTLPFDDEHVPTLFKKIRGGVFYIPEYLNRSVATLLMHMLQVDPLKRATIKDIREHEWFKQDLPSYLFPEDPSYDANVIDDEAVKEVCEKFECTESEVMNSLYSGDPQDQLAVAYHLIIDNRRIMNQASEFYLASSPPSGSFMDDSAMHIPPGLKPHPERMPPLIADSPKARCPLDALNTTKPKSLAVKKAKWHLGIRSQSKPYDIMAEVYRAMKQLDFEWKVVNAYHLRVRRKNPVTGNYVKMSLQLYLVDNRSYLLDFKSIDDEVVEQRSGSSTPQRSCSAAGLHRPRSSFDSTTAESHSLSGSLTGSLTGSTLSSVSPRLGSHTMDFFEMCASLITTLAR
T1 sequence (O43741 whole entry): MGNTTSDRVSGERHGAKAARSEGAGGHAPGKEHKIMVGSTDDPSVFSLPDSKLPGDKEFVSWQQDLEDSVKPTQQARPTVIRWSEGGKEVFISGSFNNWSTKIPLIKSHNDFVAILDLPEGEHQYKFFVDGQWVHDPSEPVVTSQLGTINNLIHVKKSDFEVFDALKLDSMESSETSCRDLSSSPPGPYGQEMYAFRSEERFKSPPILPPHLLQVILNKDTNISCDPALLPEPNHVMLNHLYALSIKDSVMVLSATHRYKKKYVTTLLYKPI
T1 sequence (P54619 whole entry partner): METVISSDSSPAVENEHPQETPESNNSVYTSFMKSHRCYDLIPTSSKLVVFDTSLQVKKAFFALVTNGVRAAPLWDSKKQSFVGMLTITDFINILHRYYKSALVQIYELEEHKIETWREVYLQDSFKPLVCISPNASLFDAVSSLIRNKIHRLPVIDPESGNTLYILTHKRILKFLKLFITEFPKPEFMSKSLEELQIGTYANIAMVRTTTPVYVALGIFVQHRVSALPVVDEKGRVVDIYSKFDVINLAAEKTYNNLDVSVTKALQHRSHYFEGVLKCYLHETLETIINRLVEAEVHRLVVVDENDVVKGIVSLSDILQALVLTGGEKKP
The experiment in a line: Biochemical profiling of AMPK activators by AMPK221 (HTRF/TR-FRET assay, SAMS peptide, PP2A dephosphorylation protection). Particulars: for EC50: phosphorylated AMPK 221 (α2β2δ1), 11 point dilution, duplicate, 4-parameter fit; for Emax: phosphorylated AMPK 221, maximal activation. As for the experimental part:
(§1) The biochemical EC50 (half-maximal concentration required for full activation) of compounds for the activation of AMPK was evaluated by HTRF assay using LANCE Ultra ULight-Acetyl-CoA Carboxylase (SAMS) peptide (commercially available, Perkin Elmer catalog TRF0133-M).
The reaction was terminated after 60 minutes incubation at room temperature by the addition of 5 μL of stop and detection cocktail, which consisted of 1× Perkin Elmer Lance buffer (Perkin Elmer catalog number CR97-100), 40 mM EDTA (Thermo Fisher catalog number BP2482-100), and 2 nM Eu-anti-Acetyl CoA Carboxylase [pSer70] antibody (Perkin Elmer, TRF0208-M). Plates were spun at 1000 RPM, 10 seconds.
(TR-FRET usually uses a lanthanide donor and a delayed reading to cut background.)

In assay [2] the target is T2, AMPK 111 (Homo sapiens, UniProt Q13131+Q9Y478).
T2 construct: open reading frames encoding the full-length α1, β1 and δ1 subunits of human AMPK; made in house; host or cells: E. coli BL21-CodonPlus (DE3)-RIPL, pET-14b
T2 sequence (Q13131 whole entry): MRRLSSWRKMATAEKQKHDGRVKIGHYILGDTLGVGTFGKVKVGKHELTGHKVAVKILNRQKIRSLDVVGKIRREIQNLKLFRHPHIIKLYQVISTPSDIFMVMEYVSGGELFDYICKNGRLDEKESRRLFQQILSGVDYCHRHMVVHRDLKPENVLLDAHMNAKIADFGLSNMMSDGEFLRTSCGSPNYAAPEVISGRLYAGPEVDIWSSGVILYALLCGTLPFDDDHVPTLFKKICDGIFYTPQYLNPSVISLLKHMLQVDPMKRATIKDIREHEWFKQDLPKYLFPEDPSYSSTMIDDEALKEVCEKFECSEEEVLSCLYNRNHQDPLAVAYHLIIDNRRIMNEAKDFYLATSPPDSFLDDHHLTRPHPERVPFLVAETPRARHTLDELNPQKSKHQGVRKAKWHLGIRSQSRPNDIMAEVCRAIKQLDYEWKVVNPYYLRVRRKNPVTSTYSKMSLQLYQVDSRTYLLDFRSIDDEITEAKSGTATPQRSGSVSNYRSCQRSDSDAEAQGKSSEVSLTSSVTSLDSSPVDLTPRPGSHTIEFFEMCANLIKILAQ
T2 sequence (Q9Y478 whole entry): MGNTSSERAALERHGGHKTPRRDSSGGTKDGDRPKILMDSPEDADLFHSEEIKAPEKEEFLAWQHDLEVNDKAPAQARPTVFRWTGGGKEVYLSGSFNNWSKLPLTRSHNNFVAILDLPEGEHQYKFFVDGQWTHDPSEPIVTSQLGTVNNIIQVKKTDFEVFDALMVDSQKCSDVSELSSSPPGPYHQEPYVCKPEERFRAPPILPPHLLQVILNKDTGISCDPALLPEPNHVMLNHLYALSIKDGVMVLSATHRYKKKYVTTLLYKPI
T2 sequence (P54619 whole entry partner): as the sequence (P54619 whole entry partner) above
The experiment in a line: Biochemical profiling of AMPK activators by AMPK111 (HTRF/TR-FRET assay, SAMS peptide, PP2A dephosphorylation protection). Particulars: for EC50: phosphorylated AMPK 111 (α1β1δ1 as printed), 11 point dilution, duplicate, 4-parameter fit; for Emax: phosphorylated AMPK 111, maximal activation. As to the method:
as §1
Following a fifteen-minute room temperature incubation, 5 μL of 30 nM protein phosphatase PP2A (isolation detailed above) diluted in the assay buffer was added to the plate, to dephosphorylate pThr172 of AMPK. […] The reaction was terminated after 60 minutes incubation at room temperature, by the addition of 5 μL of stop and detection cocktail, which consisted of 1× Perkin Elmer Lance buffer (Perkin Elmer catalog number CR97-100), 40 mM EDTA (Thermo Fisher catalog number BP2482-100), and 2 nM Eu-anti-Acetyl CoA Carboxylase [pSer70] antibody (Perkin Elmer, TRF0208-M).

With `COc1cc(F)cc(-c2ccc(-c3cc4c(CCC(=O)O)n[nH]c4cc3Cl)cc2)c1O` [Example 42, 3-(6-chloro-5-(5′-fluoro-2′-hydroxy-3′-methoxy-[1,1′-biphenyl]-4-yl)-1H-indazol-3-yl)propanoic acid], in assay [1], it took 244 nM to reach a half-maximal effect (EC50) and the Emax is 64%. Further, in assay [2], the EC50 is 291 nM and the Emax is 68%.
With `O=C(O)CCc1n[nH]c2cc(Cl)c(-c3ccc(-c4cccc(Cl)c4O)cc3)cc12` [Example 45, 3-(6-chloro-5-(3′-chloro-2′-hydroxy-[1,1′-biphenyl]-4-yl)-1H-indazol-3-yl)propanoic acid], in assay [1], a half-maximal effect (EC50) was put at 263 nM and the Emax turned out to be 66%. In assay [2], this molecule had an EC50 of 123 nM and an Emax of 82%.
For `Cc1cccc(O)c1-c1ccc(-c2cc3c(CCCC(=O)O)n[nH]c3cc2Cl)cc1` [Example 75, 4-(6-chloro-5-(2′-hydroxy-6′-methyl-[1,1′-biphenyl]-4-yl)-1H-indazol-3-yl)butanoic acid] the same measures were 229 nM, 63%, 74 nM and 75%.
The matching figures for `O=C(CCc1n[nH]c2cc(Cl)c(-c3ccc(-c4ccccc4O)cc3)cc12)OC1OC(C(=O)O)C(O)C(O)C1O` (stereo not shown) [Example 79, 6-((3-(6-chloro-5-(2′-hydroxy-[1,1′-biphenyl]-4-yl)-1H-indazol-3-yl)propanoyl)oxy)-3,4,5-trihydroxytetrahydro-2H-pyran-2-carboxylic acid]: 29 nM, 27%, 39 nM and 67%.
For `O=C(O)CCCc1n[nH]c2cc(Cl)c(-c3ccc(-c4ccccc4O)cc3)cc12` [Example 43, 4-(6-chloro-5-(2′-hydroxy-[1,1′-biphenyl]-4-yl)-1H-indazol-3-yl)butanoic acid] the same measures were 248 nM, 62%, 51 nM and 80%.
In assay [1], `Cn1c(O)nc2cc(-c3ccc(-c4cc5c(CCC(=O)O)n[nH]c5cc4Cl)cc3)ccc21` [Example 53, 3-(6-chloro-5-(4-(2-hydroxy-1-methyl-1H-benzo[d]imidazol-5-yl)phenyl)-1H-indazol-3-yl)propanoic acid] had an EC50 of 644 nM and an Emax of 55%. In assay [2], this molecule displayed an EC50 of 218 nM and an Emax of 69%.
In assay [1], `N#Cc1cccc(-c2ccc(-c3cc4c(CCC(=O)O)n[nH]c4cc3Cl)cc2)c1O` [Example 55, 3-(6-chloro-5-(3′-cyano-2′-hydroxy-[1,1′-biphenyl]-4-yl)-1H-indazol-3-yl)propanoic acid] had an EC50 of 389 nM and an Emax of 38%. Also, in assay [2], the EC50 turned out to be 208 nM and the Emax stood at 45%.
The matching figures for `COc1ccc(-c2ccc(-c3cc4c(CCC(=O)O)n[nH]c4cc3Cl)cc2)c(O)c1OC` [Example 52, 3-(6-chloro-5-(2′-hydroxy-3′,4′-dimethoxy-[1,1′-biphenyl]-4-yl)-1H-indazol-3-yl)propanoic acid]: 19 nM, 65%, 6 nM and 85%.
In assay [1], `COc1ccc(-c2ccc(-c3cc4c(CCC(=O)O)n[nH]c4cc3Cl)cc2)c(O)c1` [Example 21, 3-(6-chloro-5-(2′-hydroxy-4′-methoxy-[1,1′-biphenyl]-4-yl)-1H-indazol-3-yl)propanoic acid] came in with an EC50 of 97 nM and an Emax of 56%. In assay [2], this molecule had an EC50 of 151 nM and an Emax of 65%.
For `CCOc1cccc(-c2ccc(-c3cc4c(CCC(=O)O)n[nH]c4cc3Cl)cc2)c1O` [Example 25, 3-(6-chloro-5-(3′-ethoxy-2′-hydroxy-[1,1′-biphenyl]-4-yl)-1H-indazol-3-yl)propanoic acid] the same measures were 107 nM, 61%, 144 nM and 71%.
The matching figures for `O=C(O)CCc1n[nH]c2cc(Cl)c(-c3ccc(-c4ccc5c(c4O)OCC5)cc3)cc12` [Example 68, 3-(6-chloro-5-(4-(7-hydroxy-2,3-dihydrobenzofuran-6-yl)phenyl)-1H-indazol-3-yl)propanoic acid]: 19 nM, 69%, 29 nM and 71%.
The matching figures for `NS(=O)(=O)c1ccc(-c2ccc(-c3cc4c(CCC(=O)O)n[nH]c4cc3Cl)cc2)cc1` [Example 40, 3-(6-chloro-5-(4′-sulfamoyl-[1,1′-biphenyl]-4-yl)-1H-indazol-3-yl)propanoic acid]: 306 nM, 68%, 92 nM and 85%.
As to `NC(=O)COc1ccc(-c2ccc(-c3cc4c(CCC(=O)O)n[nH]c4cc3Cl)cc2)cc1` [Example 72, 3-(5-(4′-(2-amino-2-oxoethoxy)-[1,1′-biphenyl]-4-yl)-6-chloro-1H-indazol-3-yl)propanoic acid], in assay [1], the EC50 worked out at 1830 nM and the Emax came to 114%. Besides, in assay [2], the EC50 worked out at 99 nM and the Emax was determined as 103%.
The matching figures for `COc1cc(O)c(-c2ccc(-c3cc4c(CCC(=O)O)n[nH]c4cc3Cl)cc2)c(Cl)c1` [Example 49, 3-(6-chloro-5-(2′-chloro-6′-hydroxy-4′-methoxy-[1,1′-biphenyl]-4-yl)-1H-indazol-3-yl)propanoic acid]: 325 nM, 61%, 96 nM and 74%.
With `CN(C)C(=O)c1ccc(-c2ccc(-c3cc4c(CCC(=O)O)n[nH]c4cc3Cl)cc2)cc1` [Example 29, 3-(6-chloro-5-(4′-(dimethylcarbamoyl)-[1,1′-biphenyl]-4-yl)-1H-indazol-3-yl)propanoic acid], the EC50 in assay [1] worked out at 162 nM; in assay [2], 46 nM. Besides, the Emax in assay [1] came to 63%; in assay [2], 72%.
The matching figures for `COc1ccc(Cl)c(-c2ccc(-c3cc4c(CCC(=O)O)n[nH]c4cc3Cl)cc2)c1O` [Example 14, 3-(6-chloro-5-(6′-chloro-2′-hydroxy-3′-methoxy-[1,1′-biphenyl]-4-yl)-1H-indazol-3-yl)propanoic acid]: 72 nM, 45 nM, 65% and 74%.
As for `Cc1cccc(O)c1-c1ccc(-c2cc3c(CCC(=O)O)n[nH]c3cc2Cl)cc1` [Example 15, 3-(6-chloro-5-(2′-hydroxy-6′-methyl-[1,1′-biphenyl]-4-yl)-1H-indazol-3-yl)propanoic acid], the EC50 came out at 76 nM in assay [1] and 35 nM in assay [2]. Besides, the Emax stood at 52% in assay [1] and 75% in assay [2].
The matching figures for `O=C(O)CCc1n[nH]c2cc(Cl)c(-c3ccc(-c4ccc(C(=O)NCCCO)cc4)cc3)cc12` [Example 77, 3-(6-chloro-5-(4′-((3-hydroxypropyl)carbamoyl)-[1,1′-biphenyl]-4-yl)-1H-indazol-3-yl)propanoic acid]: 82 nM, 70 nM, 58% and 66%.
For `CS(=N)(=O)c1ccc(-c2ccc(-c3cc4c(CCC(=O)O)n[nH]c4cc3Cl)cc2)cc1` (stereo not shown) [Example 24, 3-(6-chloro-5-(4′-(S-methylsulfonimidoyl)-[1,1′-biphenyl]-4-yl)-1H-indazol-3-yl)propanoic acid] the same measures were 106 nM, 19 nM, 48% and 86%.
The matching figures for `O=C(O)CCc1n[nH]c2cc(Cl)c(-c3ccc(-c4ccncc4O)cc3)cc12` [Example 7, 3-(6-Chloro-5-(4-(3-hydroxypyridin-4-yl)phenyl)-1H-indazol-3-yl)propanoic acid]: 359 nM, 90 nM, 57% and 71%.
In assay [1], `O=C(O)CCc1n[nH]c2cc(Cl)c(-c3ccc(-c4ccc5c(c4)CS(=O)(=O)C5)cc3)cc12` [Example 54, 3-(6-chloro-5-(4-(2,2-dioxido-1,3-dihydrobenzo[c]thiophen-5-yl)phenyl)-1H-indazol-3-yl)propanoic acid] came in with an EC50 of 1010 nM and an Emax of 64%. In assay [2], this molecule gave an EC50 of 217 nM and an Emax of 61%.
On to `O=C(O)CCc1n[nH]c2cc(Cl)c(-c3ccc(-c4cccc(F)c4O)cc3)cc12` [Example 22, 3-(6-chloro-5-(3′-fluoro-2′-hydroxy-[1,1′-biphenyl]-4-yl)-1H-indazol-3-yl)propanoic acid], for which the EC50 in assay [1] worked out at 100 nM; in assay [2], 111 nM. For the same molecule, the maximum response (Emax) in assay [1] was determined as 59%; in assay [2], 74%.
